Conditions: for mass density: Vibrating tube method; for vapor or sublimation pressure: Closed cell (Static) method

FC(F)=C(F)C(F)(F)F [hexafluoropropene]
Conditions	mass density [kg/m3]
303.36 K, 1884.5 kPa, Liquid	1299.72
303.36 K, 1906.2 kPa, Liquid	1300.05
303.36 K, 1950 kPa, Liquid	1300.59
303.36 K, 1985.6 kPa, Liquid	1301.03
303.36 K, 2016.6 kPa, Liquid	1301.15
303.36 K, 2051.2 kPa, Liquid	1301.63
303.36 K, 2084.4 kPa, Liquid	1301.95
303.36 K, 2119.1 kPa, Liquid	1302.35
303.36 K, 2170.3 kPa, Liquid	1302.96
303.36 K, 2204.1 kPa, Liquid	1303.24
303.36 K, 2239.2 kPa, Liquid	1303.63
303.36 K, 2326 kPa, Liquid	1304.46
303.36 K, 2359.9 kPa, Liquid	1304.86
303.36 K, 2392.6 kPa, Liquid	1305.27
303.36 K, 2427 kPa, Liquid	1305.54
303.36 K, 2445.1 kPa, Liquid	1305.96
303.36 K, 2496.7 kPa, Liquid	1306.19
303.36 K, 2513.8 kPa, Liquid	1306.54
303.36 K, 2546.9 kPa, Liquid	1306.82
303.36 K, 2585.2 kPa, Liquid	1307.14
303.36 K, 2621.3 kPa, Liquid	1307.6
303.36 K, 2688.6 kPa, Liquid	1308.11
303.36 K, 2773.2 kPa, Liquid	1309.07
303.36 K, 2808 kPa, Liquid	1309.41
303.36 K, 2842.3 kPa, Liquid	1309.71
303.36 K, 2874.3 kPa, Liquid	1310.03
303.36 K, 2907.2 kPa, Liquid	1310.3
303.36 K, 2940.3 kPa, Liquid	1310.77
303.36 K, 3022.9 kPa, Liquid	1311.53
303.36 K, 3048.7 kPa, Liquid	1311.84
303.36 K, 3100.9 kPa, Liquid	1312.32
303.36 K, 3125.6 kPa, Liquid	1312.63
303.36 K, 3150.3 kPa, Liquid	1312.98
303.36 K, 3176.4 kPa, Liquid	1313.02
303.36 K, 3201.4 kPa, Liquid	1313.32
303.36 K, 3226.8 kPa, Liquid	1313.58
303.36 K, 3276.7 kPa, Liquid	1313.98
303.36 K, 3325.1 kPa, Liquid	1314.49
303.36 K, 3349.9 kPa, Liquid	1314.75
303.36 K, 3375.9 kPa, Liquid	1314.91
303.36 K, 3401.4 kPa, Liquid	1315.17
303.36 K, 3428.7 kPa, Liquid	1315.55
303.36 K, 3457.9 kPa, Liquid	1315.79
303.36 K, 3482.4 kPa, Liquid	1315.97
303.36 K, 3532.9 kPa, Liquid	1316.48
303.36 K, 3636.8 kPa, Liquid	1317.48
303.36 K, 3692 kPa, Liquid	1318.07
303.36 K, 3744.5 kPa, Liquid	1318.56
303.36 K, 3799.6 kPa, Liquid	1319.05
303.36 K, 3852.6 kPa, Liquid	1319.41
303.36 K, 3906.9 kPa, Liquid	1319.99
303.36 K, 3959.3 kPa, Liquid	1320.51
303.36 K, 4068.1 kPa, Liquid	1321.53
303.36 K, 4117.4 kPa, Liquid	1322.06
303.36 K, 4226.8 kPa, Liquid	1323.01
303.36 K, 4279 kPa, Liquid	1323.53
303.36 K, 4384.9 kPa, Liquid	1324.43
303.36 K, 4442 kPa, Liquid	1324.86
303.36 K, 4491.1 kPa, Liquid	1325.26
303.36 K, 4545.1 kPa, Liquid	1325.86
303.36 K, 4652.9 kPa, Liquid	1326.85
303.36 K, 4706.2 kPa, Liquid	1327.25
303.36 K, 4761.9 kPa, Liquid	1327.67
303.36 K, 4810.6 kPa, Liquid	1328.19
303.36 K, 4861.8 kPa, Liquid	1328.62
303.36 K, 4913.7 kPa, Liquid	1329.12
303.36 K, 4970 kPa, Liquid	1329.46
303.36 K, 5017 kPa, Liquid	1329.84
303.36 K, 5088.1 kPa, Liquid	1330.55
303.36 K, 5216.5 kPa, Liquid	1331.6
303.36 K, 5343.2 kPa, Liquid	1332.68
303.36 K, 5408.2 kPa, Liquid	1333.2
303.36 K, 5478.7 kPa, Liquid	1333.8
303.36 K, 5540.7 kPa, Liquid	1334.24
303.36 K, 5605.9 kPa, Liquid	1334.94
303.36 K, 5666.1 kPa, Liquid	1335.34
303.36 K, 5731.3 kPa, Liquid	1335.77
303.36 K, 5921.6 kPa, Liquid	1337.37
303.36 K, 5981.8 kPa, Liquid	1337.85
303.36 K, 6042.7 kPa, Liquid	1338.34
303.36 K, 6104.9 kPa, Liquid	1338.9
303.36 K, 6169.9 kPa, Liquid	1339.47
303.36 K, 6232.2 kPa, Liquid	1339.84
303.36 K, 6297.1 kPa, Liquid	1340.49
303.36 K, 6362 kPa, Liquid	1340.92
303.36 K, 6487 kPa, Liquid	1341.93
303.36 K, 6549.6 kPa, Liquid	1342.5
303.36 K, 6613.9 kPa, Liquid	1342.92
303.36 K, 6678.1 kPa, Liquid	1343.42
303.36 K, 6742 kPa, Liquid	1343.99
303.36 K, 6802.7 kPa, Liquid	1344.44
303.36 K, 6864.7 kPa, Liquid	1344.88
303.36 K, 6928 kPa, Liquid	1345.36
303.36 K, 7053.8 kPa, Liquid	1346.25
303.36 K, 7120.4 kPa, Liquid	1346.76
303.36 K, 7184.3 kPa, Liquid	1347.25
303.36 K, 7245.2 kPa, Liquid	1347.73
303.36 K, 7308.5 kPa, Liquid	1348.26
303.36 K, 7370.8 kPa, Liquid	1348.64
303.36 K, 7436.1 kPa, Liquid	1349.17
303.36 K, 7499.7 kPa, Liquid	1349.66
303.36 K, 7563.6 kPa, Liquid	1350.15
303.36 K, 7689.6 kPa, Liquid	1351.05
303.36 K, 7751.3 kPa, Liquid	1351.45
303.36 K, 7812.7 kPa, Liquid	1351.9
303.36 K, 7879.7 kPa, Liquid	1352.39
303.36 K, 7943 kPa, Liquid	1352.95
303.36 K, 8005.8 kPa, Liquid	1353.4
303.36 K, 8100.6 kPa, Liquid	1353.99
303.36 K, 8290.6 kPa, Liquid	1355.42
303.36 K, 8481.2 kPa, Liquid	1356.76
303.36 K, 8578.2 kPa, Liquid	1357.54
303.36 K, 8675.5 kPa, Liquid	1358.15
303.36 K, 8768.5 kPa, Liquid	1358.79
303.36 K, 8868.4 kPa, Liquid	1359.47
303.36 K, 8967.8 kPa, Liquid	1360.24
303.36 K, 9068.6 kPa, Liquid	1360.85
303.36 K, 9168.1 kPa, Liquid	1361.57
303.36 K, 9265.9 kPa, Liquid	1362.22
303.36 K, 9367 kPa, Liquid	1362.91
303.36 K, 9568.1 kPa, Liquid	1364.22
303.36 K, 9667.3 kPa, Liquid	1364.9
303.36 K, 9768.6 kPa, Liquid	1365.55
303.36 K, 9865.8 kPa, Liquid	1366.04
303.36 K, 9961.4 kPa, Liquid	1366.81
303.36 K, 9992.6 kPa, Liquid	1366.98
323.21 K, 7 kPa, Fluid (supercritical or subcritical phases)	0.29
323.21 K, 10.8 kPa, Fluid (supercritical or subcritical phases)	0.58
323.21 K, 14.3 kPa, Fluid (supercritical or subcritical phases)	0.86

Liquid
Conditions	vapor or sublimation pressure [kPa]
308.21 K	963.4
313.21 K	1099.9
318.22 K	1250.6
323.2 K	1413.5
